# Experimental data reported in US8617542B2, “DispersinB™, 5-fluorouracil, deoxyribonuclease I and proteinase K-based antibiofilm compositions and uses thereof” (Kane Biotech Inc., priority 2008, dated 2013).
# Key:
# Type in all cases: cell-based
# [1] = system: Staphylococcus aureus; experiment: MIC in 96 well microtiter plate, S. aureus; conditions: TSB, 5×10^5 CFU/mL, 37° C.
# Protocol: (§1) The antimicrobial activity of 5-fluorouracil (FU) was studied by determining minimal inhibitory concentrations (MIC) in a 96 well microtiter plate. Briefly, serial two-fold dilutions of FU were performed in TSB. A suspension of each microorganism from Table 1 was added to wells at a concentration of 5×10^5 CFU/mL, and the microtiter plates were incubated at 37° C. The MIC was defined, as the lowest concentration of an antimicrobial required for total inhibition of a test microorganism at 37° C. 5-Fluorouracil was active against all the pathogens tested (Table 1).
# [2] = system: Pseudomonas aeruginosa; experiment: MIC in 96 well microtiter plate, P. aeruginosa; conditions: TSB, 5×10^5 CFU/mL, 37° C.
# Protocol: as §1
# [3] = system: Burkholderia cepacia; experiment: MIC in 96 well microtiter plate, B. cepacia; conditions: TSB, 5×10^5 CFU/mL, 37° C.
# Protocol: as §1
# [4] = system: cystic fibrosis-associated pathogens; experiment: antimicrobial activity (MIC) against all pathogens tested; conditions: pathogens of Table 1
# Protocol: as §1
smiles,measurement,setting,value
"O=c1[nH]cc(F)c(=O)[nH]1 [5-Fluorouracil, 5-fluoro-2,4(1H,3H)-Pyrimidinedione]",MIC,[1],25 µg/mL
same,MIC,[2],31.2 µg/mL
same,MIC,[3],62.5 µg/mL
same,antimicrobial activity against all the pathogens tested,[4],active
